The values below come from patent US20240115564A1, “HTR1F ANTAGONISTS FOR IMPROVEMENT OF BETA CELL SURVIVAL AND FUNCTION” (The Regents of the University of California, priority 2021, published 2024).

The target of series [1] is T1, HTR1F (Homo sapiens, UniProt P30939).
T1 sequence (P30939 1-366): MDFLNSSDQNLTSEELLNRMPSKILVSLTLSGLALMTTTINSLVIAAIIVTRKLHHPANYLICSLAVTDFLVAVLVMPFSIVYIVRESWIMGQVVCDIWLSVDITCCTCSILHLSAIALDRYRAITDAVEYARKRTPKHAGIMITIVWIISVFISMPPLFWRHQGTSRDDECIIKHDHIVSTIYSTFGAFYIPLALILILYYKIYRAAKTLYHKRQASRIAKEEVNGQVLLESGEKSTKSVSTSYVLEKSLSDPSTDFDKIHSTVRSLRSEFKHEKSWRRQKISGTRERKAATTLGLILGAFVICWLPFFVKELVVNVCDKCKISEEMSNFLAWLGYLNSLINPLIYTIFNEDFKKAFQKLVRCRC
The settings on record: cited from earlier work.

A further series deals with dissociated human islets. The series is described as follows: Sytox Green cell death in dissociated human islets with thapsigargan and methysergide. The series is classed as cell-based. To be noted: 48 hours. As to the method: Each graph is from an independent donor. *p<0.05 for thapsigargan and for the interaction between methysergide and thapsigargan by 2-way ANOVA. Standard error is shown.
(§1) Human beta cell death and proliferation: Islets were dissociated and plated on 804G coated plates as done for the screens. For Sytox Green assays, islets were plated into 96 well plates and Sytox Green (Thermo) was added to the media (30 nM) and green fluorescence and bright field images were captured at 24 hours during culture (Incucyte). The number of green nuclei normalized to the cell density (calculated by brightfield image) was measured in biological triplicate (FIG. 2A). For FIG. 3C, dead nuclei were normalized to total nuclei as measured after treatment of the cells with 0.0625% Triton X-100. For the in vitro TUNEL assay (FIG. 2B and FIG. 2C), cells were fixed in 4% paraformaldehyde in calcium/magnesium free PBS for 15 minutes at room temperature, permeabilized with 0.1% Triton X-100 for 1 hour, blocked with 10% donkey serum in PBS for 1 hour at room temperature, and stained with guinea pig anti-insulin antibody (Agilent) overnight at 4 degrees. Secondary antibody was anti-guinea pig 488 (Thermo) at 1:300 for 1 hour at room temperature. For TUNEL staining, In Situ Death Detection Kit, TMR red (Roche) was used per the manufacturer's protocol in combination with insulin staining as above. […]

For series [2] the following is noted: cited from earlier work.
For series [3], the system named is scd beige mice receiving human islets. The series can be described thus: Minimal (marginal mass) human islet transplant model with methysergide. The series is classed as in vivo, mouse. The settings on record: islets 300 nM 24 hours; mice 10 mg/kg daily peri-transplant, 5 days; p<0.05 log-rank. Here is the method: Taken together, FIGS. 3A-3D illustrate the prevention of human beta cell death by blocking of HTR1F signaling.
Minimal human islet transplant model with methysergide: Human islets were treated with 300 nM methysergide maleate or vehicle for 24 hours after isolation. Seven-hundred IEq were then transplanted under the kidney capsule of scd beige mice. Four hours prior to transplant, recipient mice were injected with either 10 mg/kg methysergide maleate or vehicle. After transplant, mice were injected every 24 hours with 10 mg/kg methysergide or vehicle for 5 days. After 48 hours without methysergide treatment to allow washout of the drug, streptozotocin (250 mg/kg) was injected into the peritoneal space with 1 mL of normal saline injected subcutaneously for hydration. […] Blood glucose was assessed by glucometer (Freestyle Lite) after a 6 hour fast (9 am-3 pm). […]
To ask if improved human beta cell survival due to HTR1F inhibition could improve glycemia after transplant, human islets were treated with methysergide or vehicle and then a marginal mass of islets was transplanted into mice. […] After 2 days to allow for methysergide clearance, the endogenous mouse beta cells were destroyed using streptozotocin and monitored for diabetes development. […]

Series [4] concerns the target other serotonin family GPCRs and adrenergic receptors. To be noted: cited from earlier work.
For another series, the target named is other HTR1 receptors. The settings on record: cited from earlier work.
Another series concerns primary human beta cells. The series can be described thus: TUNEL / insulin staining of dissociated human islets (beta cell death). The settings on record: at 10 nM, 24 hours, 4 donors. The series is classed as cell-based. As to the method:
A representative image is shown. White arrows represent cells that are TUNEL+ insulin+ cells. Scale bar is 25 μM.
Given differences in baseline cell death between donors, the fold increase in the fraction of TUNEL+ beta cells over vehicle control is plotted. Standard error is shown, n=4 donors with at least 400 beta cells counted for each donor. *p<0.05, one-way ANOVA, post-hoc tested against vehicle.
as §1, with “degrees.” for “degrees. Secondary antibody was anti-guinea pig 488 (Thermo) at 1:300 for 1 hour at room temperature. For TUNEL staining, In Situ Death Detection Kit, TMR red (Roche) was used per the manufacturer's protocol in combination with insulin staining as above.”

Series [5] addresses T1, HTR1F. To be noted: read-out: reported EC50; cited from earlier work.
Another series deals with primary human islet cell. The series is described as follows: Sytox Green cell death assay in dissociated human islets treated with HTR1F agonist. The series is classed as cell-based. To be noted: 24 hours, two independent donors. As to the method: Dissociated human islets were treated with the indicated doses of LY344864 for 24 hours. Dead cells were monitored by Sytox Green. The number of Sytox Green nuclei were normalized to cell density measured by bright field imaging. n=4 biological replicates for each donor. *p<0.05, **p<0.01 by post-hoc Student's t-test after one-way ANOVA versus vehicle treatment.
as §1, with “degrees.” for “degrees. Secondary antibody was anti-guinea pig 488 (Thermo) at 1:300 for 1 hour at room temperature. For TUNEL staining, In Situ Death Detection Kit, TMR red (Roche) was used per the manufacturer's protocol in combination with insulin staining as above.”

Another series concerns human islets. The series can be described thus: Glucose-stimulated insulin release in human islets. The series is classed as cell-based. To be noted: 150 nM, 11 mM glucose, 9 human islet donors, vs DMSO. Here is the method: Human islets were rested for 24 hours after receipt in CMRL 1066 (Media Tech) supplemented with penicillin and streptomycin, B27 supplement, Glutamax (Thermo), and non-essential amino acids (Thermo). For both the test treatment group and the control treatment group, 40-60 islets for each of the 5 replicates were hand-picked. The islets were equilibrated for two hours at 37° C. in Kreb-Ringer Bicarbonate HEPES Buffer pH 7.4 (KRBH; 137 mM NaCl, 4.7 mM KCl, 1.2 mM KH2PO4, 1.2 mM MgSO4, 2.5 mM CaCl2), 25 mM NaHCO3, 20 mM HEPES, 2.8 mM glucose, and 0.25% BSA). Equilibration buffer was then removed and islets were incubated at 37° C. with KRBH pH 7.4 with 2.8 mM glucose and 0.25% BSA and were treated with DMSO or 150 nM HTR1F antagonist 1-(2-hydroxy-3-(naphthalen-2-yloxy)propyl)-4-(quinolin-3-yl)piperidin-4-ol. After 1 hour, islet secretion was collected and islets were treated with KRBH pH 7.4 containing 11 mM glucose and 0.25% BSA and were treated with DMSO or 150 nM antagonist at 37° C. for another hour. Following incubation, islet secretions were collected and the islets were lysed in RIPA buffer to determine the total islet insulin content. Islet secretions were diluted 2-5 fold for analysis with the Mercodia insulin ELISA kit and lysates were diluted 200-500 fold for analysis. […]

Series [6] concerns the target T1, HTR1F. The series can be described thus: Glosensor cAMP assay in 293T cells transfected with HTR1F cDNA. The series is classed as cell-based. The arrangement: from tissue; host or cells: primary human islets from cadaveric donors, transplanted under the kidney capsule of scid-beige mice. To be noted: 10 minutes pre-treatment, serotonin 5 nM then forskolin. Here is the method: 293T cells were transiently transfected with the Glosensor plasmid (Promega) and the HTR1F cDNA. The cells were pre-treated with 1-(2-hydroxy-3-(naphthalen-2-yloxy)propyl)-4-(quinolin-3-yl)piperidin-4-ol at the concentrations shown in FIG. 4 for 10 minutes, then with serotonin (5 nM), and then forskolin and luminescence was determined. n=5, error bars show standard error. […] N=5 per concentration.
Background: cAMP levels reflect the balance of adenylyl cyclase and phosphodiesterase activity.

The subject of series [7] is MIN6 cells transfected with GFP-T2A-HTR1F. The series is described as follows: MIN6 cell death after HTR1F expression (propidium iodide). The series is classed as cell-based, mouse. To be noted: 200 ng/mL pre-incubation, 32-40 hours after transfection. As to the method:
GFP+ cells were assessed for cell death by propidium iodide staining 32-40 hours after transfection. […] Significant post-hoc Holm adjusted Student's t-test comparisons are shown. n=33 for each group conducted over 3 independent experiments. Taken together, FIGS. 2A-2D illustrate the induction of primary human beta cell death by HTR1F signaling.
MIN6 cell death: The human HTR1F cDNA was cloned from 293T cDNA and cloned downstream of a CMV promoter GFP-T2A expression vector with the addition of a viral signal sequence and FLAG epitope tag as previously described. The sequence was confirmed by Sanger sequencing. 10,000 MIN6 cells were plated in a 96-well plate. The following day, the cells were transfected with either the parental GFP-T2A expression vector or GFP-T2A-HTR1F using Lipofectamine 2000 (Thermo Fisher). Six hours after transfection, the media was changed to one containing propidium iodide (Thermo Fisher) at 0.3 ug/mL. The percentage of GFP+ cells that were also PI+ was measured by automated fluorescence microscopy (IncuCyte, Essen Biosciences) at 32-40 hours after transfection. For pertussis toxin (Enzo), cells were treated with 200 ng/mL during cell plating and during transfection.

Take `CC[C@@H](CO)NC(=O)[C@@H]1C=C2c3cccc4c3c(cn4C)C[C@H]2N(C)C1` [methysergide, (6aR,9R)—N—((S)-1-hydroxybutan-2-yl)-4,7-dimethyl-4,6,6a,7,8,9-hexahydroindolo[4,3-fg]quinoline-9-carboxamide]: the “inhibition of HTR1F” value on HTR1F [1] is listed as “potently inhibit”. Besides, the “effect on death triggered by thapsigargan” value in the series with dissociated human islets (30 nM methysergide with 10 μM thapsigargan) was “prevent death”. In addition, in the series with dissociated human islets (30 nM, dissociated cultures), the “effect of methysergide alone on islet cell death” value is “no effect”. In addition, the “risk during chronic treatment” value in series [2] (chronic treatment) is on record as “risk of retroperitoneal fibrosis”. Besides, the “insulin secretion in humans” value in series [2] (humans) is listed as “increase insulin secretion”. Besides, the “diabetes-free survival / development of diabetes after streptozotocin” value in [3] is recorded as “protect mice from the development of diabetes”.

For orientation: Ki means the dissociation constant of the complex between target and ligand, obtained from inhibition or displacement. As usually defined, the EC50 is the concentration needed to bring the measured effect to its halfway point. As for `CN(C)[C@@H]1CCc2[nH]c3ccc(NC(=O)c4ccc(F)cc4)cc3c2C1` [LY344864], the values for the Ki (in series [4]; at other HTR1 receptors) were 1.5 to 5 µM and over 500 nM, respectively. In addition, the “beta cell death (TUNEL+ insulin+ cells)” value in the series with primary human beta cells was “increase beta cell death”. Also, the half-maximal effective concentration (EC50) at HTR1F [5] is 3 nM. For the same compound, the “primary human islet cell death (Sytox Green)” value in the series on primary human islet cell is on record as “increase primary human islet cell death”.

With `OC(COc1ccc2ccccc2c1)CN1CCC(O)(c2cnc3ccccc3c2)CC1` (centres unmarked) [1-(2-hydroxy-3-(naphthalen-2-yloxy)propyl)-4-(quinolin-3-yl)piperidin-4-ol], the “increase in insulin secretion at high glucose concentration” value in the series on human islets turned out to be 40%. On HTR1F [6], the “inhibition of HTR1F (cAMP luminescence)” value was “inhibition of HTR1F”.

On to pertussis toxin, for which the “effect on HTR1F-induced cell death” value in [7] is reported as “blocked”.
